Assay [1] has as its system Notch target genes (Hes1, Hey1, HeyL and TGFβ1). Kind of assay: qRT-PCR of Notch target genes in MC3T3-E1 osteoblasts FACS-separated from cocultures. Type of assay: cell-based, mouse. As to conditions: osteoblasts FACS-separated from JAG1 OE coculture; FIG. 7B. Here is the method: For gene expression analysis, MC3T3-E1 cells were grown to confluence in 10 cm culture dishes. The 2×10^5 GFP+ control or JAG1 OE cells were seeded onto the plate in osteoblast media. Cell sorting was performed to purify the GFP-negative MC3T3-E1 osteoblasts 5 days after initial coculture. RNA from FACS-separated MC3T3-E1 cells was collected in RLT lysis buffer, extracted with RNeasy Mini Kit (QIAGEN), and subjected to quantitative RT-PCR.
(§1) RNA from in vitro cultured cells or flow cytometry-separated cells was collected in RLT lysis buffer and extracted with RNeasy mini kit (Qiagen). RNA extraction from in vivo tissue samples was performed using Trizol (Invitrogen) according to the manufacturer's protocol. cDNA synthesis of RNA was performed using Superscript III First-Strand (Invitrogen). Quantitative RT-PCR was performed using Power Syber Green PCR Master Mix (Applied Biosystems) with the ABI Prism 7900HT thermocycler (Applied Biosystems) according to the manufacturer's protocol. A standard curve for each gene was generated by serial dilutions of a standard. Values were then normalized by the amount of GAPDH or β-actin in each sample. For in vivo samples, species-specific primers were employed for gene expression analysis in the tumor compartment (human) versus stroma compartment (mouse).

For another assay, the system named is SCP2 bone metastasis. Kind of assay: Bone metastasis xenograft, SCP2 cells injected intracardially, MRK-003 treatment. Type of assay: in vivo, mouse. Here is the method: For bone metastsis studies, 10^5 tumor cells were injected into the left cardiac ventricle of anesthetized female athymic Ncr-nu/nu or BALB/c mice. Development of metastases was monitored by BLI. Bioluminescence images were acquired with a Xenogen IVIS 200 Imaging System. Analysis was performed with Living Image software by measuring photon flux in the hindlimbs of mice. Data were normalized to the signal on day 7. Bone metastasis-free survival curves represent the time point at which each mouse developed bone metastasis by threshold BLI signals in the hindlimbs. For the orthotopic xenograft model, mammary fat pad injections and primary tumor size measurements were performed following the procedure described previously (Minn et al., 2005, which is incorporated herein by reference as if fully set forth).
Osteolysis was assessed by X-ray radiography. Anesthetized mice were placed on single wrapped films (X-OMAT AR, Eastman Kodak) and exposed to X-ray radiography at 35 kV for 15 s using a MX-20 Faxitron instrument. Films were developed using a Konica SRX-101A processor. Osteolytic lesions were identified on radiographs as demarcated radiolucent lesions in the bone and quantified using the ImageJ software (National Institutes of Health).
Hindlimb bones were excised from mice at the end point of each experiment, immediately after the last BLI time point. Following this, the tumor-bearing hind limb bones were fixed in 10% neutral-buffered formalin, decalcified in 10% EDTA for 2 weeks, and embedded in paraffin for hematoxylin and eosin (H&E), tartrate-resistant acid phosphatase (TRAP) (Kos et al., 2003, which is incorporated herein by reference as if fully set forth), or immunohistochemical staining. Histomorphometric analysis was performed on H&E stained bone metastasis samples using the Zeiss Axiovert 200 microscope and the AxioVision software version 4.6.3 SP1. For quantitative analysis of lesion area, a 5× objective was used to focus on the tumor region of interest and images were acquired using the AxioCamICc3 camera set to an exposure of 100 ms. Lesions that were larger than the field of view were quantified by acquiring multiple images to encompass the entire lesion. The “spline” function of the AxioVision software was used to outline the region of interest and subsequently quantify the lesion area. Osteoclast number was assessed as multinucleated TRAP^+ cells along the tumor-bone interface and reported as number/mm of interface (Yin et al., 2003, which is incorporated herein by reference as if fully set forth). Immunohistochemical analysis was performed with heat-induced antigen retrieval. Primary antibodies used were anti-JAGGED1 (Santa Cruz, sc-6011) and anti-Ki67 (Dako, Denmark). Biotinylated secondary antibody was used with Vectastain ABC Kit (Vector Laboratories) and DAB detection kit (Zymed) to reveal the positively stained cells with nuclei counterstained with hematoxylin.
MRK-003 is a potent and specific gamma-secretase inhibitor whose biochemical, cellular and pharmacological properties have been extensively studied and reported. MRK-003 is a cyclic sulfamide with sub-nanomolar potency inhibiting gamma-secretase-mediated cleavage of Notch to its active form (NICD) (Lewis et al., 2007, which is incorporated herein by reference as if fully set forth). […] For xenograft experiments, mice were administered the vehicle (0.5% methylcellulose) or MRK-003 by oral gavage twice a week at a 100 mg/kg dosage. The dosing schedule was 2-days on, 5-days off. […]

For assay [2], the system named is JAG1 OE tumor cells bone metastasis. Kind of assay: Bone metastasis xenograft, JAG1 OE tumor cells, MRK-003 treatment. Type of assay: in vivo, mouse. Here is the method:
For bone metastsis studies, 10^5 tumor cells were injected into the left cardiac ventricle of anesthetized female athymic Ncr-nu/nu or BALB/c mice. Development of metastases was monitored by BLI. Bioluminescence images were acquired with a Xenogen IVIS 200 Imaging System. Analysis was performed with Living Image software by measuring photon flux in the hindlimbs of mice. Data were normalized to the signal on day 7. Bone metastasis-free survival curves represent the time point at which each mouse developed bone metastasis by threshold BLI signals in the hindlimbs. […]
Osteolysis was assessed by X-ray radiography. […] Osteolytic lesions were identified on radiographs as demarcated radiolucent lesions in the bone and quantified using the ImageJ software (National Institutes of Health).
Hindlimb bones were excised from mice at the end point of each experiment, immediately after the last BLI time point. […] For quantitative analysis of lesion area, a 5× objective was used to focus on the tumor region of interest and images were acquired using the AxioCamICc3 camera set to an exposure of 100 ms. Lesions that were larger than the field of view were quantified by acquiring multiple images to encompass the entire lesion. The “spline” function of the AxioVision software was used to outline the region of interest and subsequently quantify the lesion area. […]

The test system of assay [3] is Notch target genes and IL-6. Kind of assay: Species-specific qRT-PCR of the stromal compartment of bone metastases. Type of assay: in vivo. As to conditions: mouse-specific qRT-PCR; FIG. 17A. Here is the method: as §1
On the technique in general: In qPCR the cycle at which signal appears reflects the starting amount.

The next assay deals with Notch. As to conditions: Tammam et al., 2009; cited from earlier work.

Turning to `O=S1(=O)N[C@@]2(CN1CC(F)(F)F)[C@@H]1CC[C@H]2Cc2ccc(/C=C/CN3CCC(C(F)(F)F)CC3)cc2C1` [MRK-003], the “Notch target genes (Hes1, Hey1, HeyL and TGFβ1) mRNA in osteoblasts” value in assay [1] is given as “downregulated”. Also, the “reduction in bone metastasis burden by BLI” value in the assay with SCP2 bone metastasis (100 mg/kg oral gavage twice a week, FIG. 16A) stood at 5 fold. Further, in the assay with SCP2 bone metastasis (FIG. 16B), the “delay in the onset of bone metastasis” value is about 10 days. Also, the “number of bone lesions” value in the assay on SCP2 bone metastasis (FIG. 16C) is listed as “reduced”. The “reduction in X-ray lesion area” value with SCP2 bone metastasis (FIG. 16D) was 2 fold. Also, the “decrease in the number of TRAP+ osteoclasts” value with SCP2 bone metastasis (bone-tumor interface, FIG. 16E) was 3 fold. Moreover, in assay [2] (JAG1 OE, FIG. 17D), the osteolysis entry was “reduced”. Moreover, the “reduction of bone metastasis in the JAG1 OE group” value in assay [2] (tumor signal decreased to levels of control group, FIGS. 17B-17C) is on record as “more than 6 fold”. Further, the “expression levels of Notch target genes and IL-6 in the stromal compartment of bone metastases” value in assay [3] is on record as “significantly reduced”. The “duration of target engagement sufficient to induce potent Notch inhibition” value in the assay with Notch is 48 h.

Values taken from patent publication US20150329918A1, “JAGGED1 AS A MARKER AND THERAPEUTIC TARGET FOR BREAST CANCER BONE METASTASIS” (The Trustees of Princeton University, priority 2011, published 2015).
